Results: patent US20010007866A1, “TREATMENT OF PRURITUS WITH VITAMIN D AND ANALOGS THEREOF” (priority 1995, published 2001)
Where “and” joins values, the source holds several entries; their conditions need not be identical. Equal entries are not always repeated.

How the values were obtained:
[1] = system: pruritus of sunburn; assay: Topical application to pruritus of sunburn (subject two); format: in vivo, human
Procedure: A corn oil solution of vitamin D3 was prepared by adding 1 gram of vitamin D3 to 20 ml corn oil with mixing for approximately 1 hour followed by brief heating to approximately 45° C. until dissolved. One ml of this solution was mixed with 47 ml corn oil and 2 ml isopropyl myristate to obtain a final concentration of vitamin D3 of 1000 μg/ml.
Subject two developed a sunburn on the back and experienced severe pruritus. […] The pruritus abated completely about one-half hour after these applications.

[2] = system: pruritus caused by poison ivy; assay: Topical application to poison ivy rash, pruritic score on 100 mm visual analog scale (subject one); format: in vivo, human
Procedure: Testing Procedure: Subject one contracted poison ivy rash and tested the various preparations above. Preparations were evaluated by the subject after application to an area of rash approximately 1-10 square centimeters. Comparisons were made of antipruritic effect by marking on a 100 mm visual analog scale consisting of a plain line with the left end labeled “None” and the right end labeled “Maximal”. The subject was instructed to mark the scale at a point which they felt corresponded to the level of itchiness that they were feeling at the treatment site at the appropriate time. The samples were coded so that the subject was not aware of what a given sample was and they were not told if they were expected to have an effect. They carried out the evaluation unaided, applying the samples in any order they chose except where side-by-side comparisons were made as indicated in the tables. From the marked scale the pruritic score was determined as the number of mm from the left side of the scale to the subject's mark. Thus a higher value indicates a high level or pruritus and a low value indicates a low level to no pruritus.
The patient and test procedures were as described in example 3. The results of tests using oil-based formulations are in tables 2a through 2c.
The patient and test procedures were as described in example 3. The results of tests using oil-based formulations are in Table 3.
Serial dilutions of Vita Moist Cream were made from an initial 5 ml quantity of Vita Moist Cream by adding successive 5 ml quantities of the diluent, Care Deeply Cream, to the starting formulation and subsequent 5 ml aliquots of successive dilutions as follows:
After coding with numbers 1-6 as above, the preparations were randomly sorted and again coded […] and tested two at a time in alphabetical order. […] The minimal effective concentration in this formulation appears to be between 1.25 and 2.5 μg/ml.

C=C1CC[C@H](O)C/C1=C/C=C1\CCC[C@]2(C)[C@@H]([C@H](C)CCCC(C)C)CC[C@@H]12 [Vitamin D3, cholecalciferol]
antipruritic effect (in words) ([1]; 1000 μg/ml in corn oil): immediately and completely alleviated
time until the pruritus returned ([1]; after 1000 μg/ml in corn oil): one and one-half
antipruritic effect (in words, no scores recorded) ([2]; 869 μg/ml in Eucerin lotion, compared with Eucerin plus corn oil control): stopped the pruritus instantly and completely
antipruritic effect (in words) ([2]; Keri lotion as vehicle, Table 1b): rapid and complete antipruritic effect
pruritic score (100 mm visual analog scale) ([2]; Keri lotion with added isopropyl myristate, 52 μg/ml, time 0 min): 77 mm
pruritic score (100 mm visual analog scale) ([2]; Keri lotion with added isopropyl myristate, 52 μg/ml, time 1 min): 35 mm
pruritic score (100 mm visual analog scale) ([2]; Keri lotion with added isopropyl myristate, 52 μg/ml, time 5 min): 0 mm
pruritic score (100 mm visual analog scale) ([2]; Keri lotion with added isopropyl myristate, 52 μg/ml, time 10 min): 0 mm
pruritic score (100 mm visual analog scale) ([2]; Keri lotion with added isopropyl myristate, 502 μg/ml, time 0 min): 80 mm
pruritic score (100 mm visual analog scale) ([2]; Keri lotion with added isopropyl myristate, 502 μg/ml, time 1 min): 0 mm
pruritic score (100 mm visual analog scale) ([2]; Keri lotion with added isopropyl myristate, 502 μg/ml, time 5 min): 0 mm
pruritic score (100 mm visual analog scale) ([2]; Keri lotion with added isopropyl myristate, 502 μg/ml, time 10 min): 0 mm
pruritic score (100 mm visual analog scale) ([2]; Keri lotion with added isopropyl myristate, 869 μg/ml, time 0 min): 82 mm
pruritic score (100 mm visual analog scale) ([2]; Keri lotion with added isopropyl myristate, 869 μg/ml, time 1 min): 0 mm
pruritic score (100 mm visual analog scale) ([2]; Keri lotion with added isopropyl myristate, 869 μg/ml, time 5 min): 0 mm
pruritic score (100 mm visual analog scale) ([2]; Keri lotion with added isopropyl myristate, 869 μg/ml, time 10 min): 0 mm
pruritic score (100 mm visual analog scale) ([2]; Keri lotion, 10 μg/ml, no isopropyl myristate, time 0 min, single tests): 78 mm and 80 mm
pruritic score (100 mm visual analog scale) ([2]; Keri lotion, 10 μg/ml, no isopropyl myristate, time 1 min, single tests): 0 mm
pruritic score (100 mm visual analog scale) ([2]; Keri lotion, 10 μg/ml, no isopropyl myristate, time 5 min, single tests): 0 mm
pruritic score (100 mm visual analog scale) ([2]; Keri lotion, 10 μg/ml, no isopropyl myristate, time 10 min, single tests): 0 mm
pruritic score (100 mm visual analog scale) ([2]; Keri lotion, 10 μg/ml, with isopropyl myristate, time 0 min, single tests): 80 mm and 77 mm
pruritic score (100 mm visual analog scale) ([2]; Keri lotion, 10 μg/ml, with isopropyl myristate, time 5 min, single tests): 0 mm
pruritic score (100 mm visual analog scale) ([2]; Keri lotion, 10 μg/ml, with isopropyl myristate, time 10 min, single tests): 0 mm
pruritic score, Mean ([2]; Keri lotion, 10 μg/ml, mean of four tests (with and without isopropyl myristate), time 0 min): 79 mm
pruritic score, Mean ([2]; Keri lotion, 10 μg/ml, mean of four tests (with and without isopropyl myristate), time 1 min): 0 mm
pruritic score, Mean ([2]; Keri lotion, 10 μg/ml, mean of four tests (with and without isopropyl myristate), time 5 min): 0 mm
pruritic score, Mean ([2]; Keri lotion, 10 μg/ml, mean of four tests (with and without isopropyl myristate), time 10 min): 0 mm
pruritic score (100 mm visual analog scale) ([2]; Keri lotion, 521 μg/ml, no isopropyl myristate, time 0 min): 80 mm
pruritic score (100 mm visual analog scale) ([2]; Keri lotion, 521 μg/ml, no isopropyl myristate, time 1 min): 81 mm
pruritic score (100 mm visual analog scale) ([2]; Keri lotion, 521 μg/ml, no isopropyl myristate, time 5 min): 0 mm
pruritic score (100 mm visual analog scale) ([2]; Keri lotion, 521 μg/ml, no isopropyl myristate, time 10 min): 0 mm
antipruritic effect (in words) ([2]; Keri lotion, concentrations from 10 through 869 μg/ml, Table 1c): effective in rapidly and effectively relieving pruritus
antipruritic effect (in words) ([2]; Vita Moist Cream diluted with Care Deeply Cream, 1.25 μg/ml and 0.5 μg/ml): some antipruritic effect but the effect was not complete nor was it rapid and sustained
antipruritic effect (in words) ([2]; Vita Moist Cream diluted with Care Deeply Cream, 2.5 and 5 μg/ml): rapid and complete alleviation of pruritus
antipruritic effect (in words) ([2]; corn oil vehicle, 1000 μg/ml, mean of two tests compared to vehicle control): no detectable antipruritic effect
pruritic score, Mean ([2]; corn oil, 1000 μg/ml, mean of two tests, time 0 min): 81 mm
pruritic score, Mean ([2]; corn oil, 1000 μg/ml, mean of two tests, time 1 min): 81 mm
pruritic score, Mean ([2]; corn oil, 1000 μg/ml, mean of two tests, time 5 min): 70 mm
pruritic score, Mean ([2]; corn oil, 1000 μg/ml, mean of two tests, time 10 min): 59 mm
pruritic score (100 mm visual analog scale) ([2]; corn oil, 1000 μg/ml, time 0 min, tests 1 and 2): 80 mm and 81 mm
pruritic score (100 mm visual analog scale) ([2]; corn oil, 1000 μg/ml, time 1 min, tests 1 and 2): 80 mm and 81 mm
pruritic score (100 mm visual analog scale) ([2]; corn oil, 1000 μg/ml, time 5 min, tests 1 and 2): 81 mm and 58 mm
pruritic score (100 mm visual analog scale) ([2]; corn oil, 1000 μg/ml, time 10 min, tests 1 and 2): 60 mm and 58 mm
lowest concentration found to have an anti-pruritic effect ([2]; non-aqueous vehicle): 521 µg/mL
antipruritic effect (in words) ([2]; petroleum jelly vehicle, 521 μg/ml): an antipruritic effect
pruritic score (100 mm visual analog scale) ([2]; petroleum jelly, 521 μg/ml, time 0 min): 72 mm
pruritic score (100 mm visual analog scale) ([2]; petroleum jelly, 521 μg/ml, time 1 min): 11 mm
pruritic score (100 mm visual analog scale) ([2]; petroleum jelly, 521 μg/ml, time 5 min): 10 mm
pruritic score (100 mm visual analog scale) ([2]; petroleum jelly, 521 μg/ml, time 10 min): 9 mm
effective concentration ([2]; suspension of water and a dispersed phase): 12.5 µg/mL
lowest effective concentration ([2]; water-based emulsion formulation): 2.5 µg/mL
